According to patent US12391726B2, “Ursolic acid morpholine salt” (EMMYON, INC., priority 2017, dated 2025):
Structures can show the parent of a compound that is named as a salt. Where two headings read alike, the source gives them in different places. Marks after values point to notes of the source that are not given here.

Assays:
[1] = tested on: male C57BL/6 mice; test: Ursolic acid-diethanolamine salt: body weight and composition testing (standard chow, 7 weeks); assay type: in vivo
Procedure: After mice had consumed these diets for 7 weeks, mice were weighed and body composition was assessed by NMR. Data are means±SEM from 15 mice per cohort. *P<0.05.

[2] = tested on: male C57BL/6 mice; test: Comparative grip strength testing for ursolic acid and salts thereof (standard chow, 6 weeks); assay type: in vivo; conditions: for Potency and efficacy compared with native ursolic acid and other ursolic acid salts: conclusion from Table I grip strength data; for Grip Strength (% Change vs. Control): 6 weeks, mean ± SEM, 12 mice
Text: Weight-matched cohorts of 8-week old male C57BL/6 mice were randomized to receive ad libitum access to either standard chow (control) or standard chow supplemented with either 0.050% ursolic acid, 0.200% ursolic acid, or one of the indicated ursolic acid salts: ursolic acid-ethanolamine salt; ursolic acid-tris(hydroxymethyl)aminomethane salt, hereinafter referred to as ursolic acid-“tris” salt; ursolic acid-lysine salt; ursolic acid-diethanolamine salt; ursolic acid-morpholine salt; or ursolic acid-piperazine salt. The ursolic acid-diethanolamine salt and ursolic acid-morpholine salt were prepared as described above. Ursolic acid was commercially obtained, and was used as a starting material to make the other ursolic acid salts according to techniques analogous to those above and known in the art. The doses of ursolic acid salts were molar-matched to either 0.050% ursolic acid (i.e. 0.057% ursolic acid-ethanolamine salt, 0.063% ursolic acid-tris salt, 0.066% ursolic acid-lysine salt, 0.059% ursolic acid-morpholine salt, and 0.059% ursolic acid-piperazine salt) or to 0.048% ursolic acid (i.e. 0.060% ursolic acid-diethanolamine salt). After mice had consumed these diets for 6 weeks, in vivo grip strength was measured.

[3] = tested on: male C57BL/6 mice; test: Direct comparison to molar-matched ursolic acid in obesity-induced glucose intolerance (high-fat chow, 7 weeks); assay type: in vivo; conditions: 6 h fast, 0.050% ursolic acid or 0.059% morpholine salt, P<0.01
Procedure: Weight-matched cohorts of 8-week old male C57BL/6 mice were randomized to receive ad libitum access to either high-fat chow supplemented with 0.050% ursolic acid, or high-fat chow supplemented with a molar-matched dose of ursolic acid-morpholine salt (0.059%). After mice had consumed the diets for 7 weeks, mice were fasted for 6 hours and then subjected to glucose tolerance testing. […] Data are means±SEM from 10 mice per cohort.

[4] = tested on: C2C12 myotubes; test: Total cellular protein in cultured C2C12 myotubes (in vitro model of skeletal muscle); assay type: cell-based; conditions: 48 hours, 10% FBS; for Total cellular protein (FIG. 6): normalized to vehicle-treated, dose-dependent
Procedure: A direct, side-by-side comparison of ursolic acid and ursolic acid-morpholine salt was performed in an in vitro model of skeletal muscle. C2C12 myoblasts were cultured and fully differentiated into post-mitotic skeletal myotubes, then incubated for 48 hours with 10% fetal bovine serum (FBS) plus the indicated concentrations of ursolic acid or ursolic acid-morpholine salt. Myotubes were then harvested for assessment of total cellular protein, which increases as myotubes undergo hypertrophy. (See Dyle et al., Systems-based discovery of tomatidine as a natural small molecule inhibitor of skeletal muscle atrophy, Journal of Biological Chemistry 289, (2014) 14913-14924.) Total protein in each sample was normalized to the amount of in vehicle-treated myotubes. […] Results are shown in FIG. 6, which is a graph depicting results from the direct, side-by-side comparison of ursolic acid and ursolic acid-morpholine salt in the cultured C2C12 myotubes in vitro model of skeletal muscle.

[5] = tested on: male C57BL/6 mice; conditions: high-fat chow, 8 weeks, 0.500% Ursolic Acid or 0.059% morpholine salt; for Skeletal Muscle Wt (mg/g Final Body Wt): total dissected muscle weight normalized to final body weight
Text: Weight-matched cohorts of 8-week old male C57BL/6 mice were randomized to receive ad libitum access to either high-fat chow (control), high-fat chow supplemented with 0.050% ursolic acid, or high-fat chow supplemented with a molar-matched dose of ursolic acid-morpholine salt (0.059%). Just prior to starting these diets, mice were weighed and subjected to body composition analysis by NMR. After mice had consumed the diets for 8 weeks, body weight and body composition were re-assessed, retroperitoneal and epididymal fat pads were dissected and weighed, and skeletal muscles (tibialis anterior, gastrocnemius, soleus, quadriceps and triceps) were dissected and weighed. In each mouse, the total dissected skeletal muscle weight (combined weight of bilateral tibialis anterior, gastrocnemius, soleus, quadriceps and triceps muscles) was normalized to the final body weight. Data are means±SEM from 10 mice per cohort.

[6] = tested on: male C57BL/6 mice; conditions: 0.059% in high-fat chow, 8 weeks, 6 h fast; control 37,122±1,339; P<0.01
Procedure: Weight-matched cohorts of 8-week old male C57BL/6 mice were randomized to receive ad libitum access to either high-fat chow (control) or high-fat chow supplemented with 0.059% ursolic acid-morpholine salt. After mice had consumed the diets for 8 weeks, mice were fasted for 6 hours and then subjected to glucose tolerance testing. Results are shown in FIG. 3, which is a graph depicting glucose tolerance testing results. Data are means±SEM from 15 mice per cohort.

[7] = tested on: diet-induced obese mice; test: Obesity and blood glucose testing (high-fat chow, 9 weeks); assay type: in vivo; conditions: 0.059% in high-fat chow
Text: Weight-matched cohorts of 8-week old male C57BL/6 mice were randomized to receive ad libitum access to either high-fat chow (control) or high-fat chow supplemented with 0.059% ursolic acid-morpholine salt. Just prior to starting these diets, mice were weighed and subjected to body composition analysis by NMR. After mice had consumed the diets for 9 weeks, body weight and body composition were re-assessed, retroperitoneal and epididymal fat pads were dissected and weighed, and non-fasting blood glucose was measured.

[8] = tested on: male C57BL/6 mice; conditions: quadriceps, 0.059% in standard chow, 7 weeks, vs control
Text: (§1) Weight-matched cohorts of 8-week old male C57BL/6 mice were randomized to receive ad libitum access to either standard chow (control) or standard chow supplemented with 0.059% ursolic acid-morpholine salt. After mice had consumed these diets for 7 weeks, quadriceps muscles were dissected, fixed, cross-sectioned, stained with hematoxylin and eosin, and subjected to photomicrography. FIG. 1A is a photomicrograph of quadriceps skeletal muscle fibers from the control group. FIG. 1B is a photomicrograph of quadriceps skeletal muscle fibers from the ursolic acid-morpholine salt group.

[9] = tested on: male C57BL/6 mice; conditions: 0.059% in standard chow, 7 weeks
Procedure: Weight-matched cohorts of 8-week old male C57BL/6 mice were randomized to receive ad libitum access to either standard chow (control) or standard chow supplemented with 0.059% ursolic acid-morpholine salt. After mice had consumed these diets for 7 weeks, in vivo, grip strength was measured, mice were weighed, body composition was assessed by NMR, and quadriceps muscles were dissected for histological analysis of skeletal muscle fiber cross-sectional diameter.

[10] = tested on: male C57BL/6 mice; test: Comparison with a maximally effective dose of ursolic acid (high-fat diet, 7 weeks, glucose tolerance test); assay type: in vivo; conditions: 0.059% morpholine salt vs 0.20% w/w ursolic acid
Procedure: After 7 weeks on the diets, mice were fasted for 6 hours and were then subjected to glucose tolerance tests.

[11] = tested on: male C57BL/6 mice; conditions: retroperitoneal fat pads, 0.059% in standard chow, 7 weeks, vs control
Text: as §1, with “retroperitoneal fat pads” for “quadriceps muscles”, “2A” for “1A”, “adipocytes from retroperitoneal fat pads” for “quadriceps skeletal muscle fibers”, “2B” for “1B”

[12] = standard chow supplemented, doses molar-matched to 0.050% ursolic acid (0.048% for diethanolamine salt): 0.050% ursolic acid, 0.057% ethanolamine, 0.063% tris, 0.066% lysine, 0.060% diethanolamine, 0.059% morpholine, 0.059% piperazine salt

## C[C@H]1[C@H](C)CC[C@]2(C(=O)O)CC[C@]3(C)C(=CCC4[C@@]5(C)CC[C@H](O)C(C)(C)C5CC[C@]43C)[C@H]12 (stereo partly shown) [Ursolic Acid-Diethanolamine Salt, ursolic acid diethanolamine salt]
[1]; 0.060% in standard chow
  Final % Fat: 16.6 ± 2.0%
  Final % Lean: 64.2 ± 1.6%
  Final Body Wt: 31.7 ± 0.5 g
  Final Fat Mass: 5.3 ± 0.7 g
  Final Lean Mass: 20.3 ± 0.4* g
[1]; 0.180% in standard chow
  Final % Fat: 14.1 ± 1.8* %
  Final % Lean: 65.5 ± 1.4* %
  Final Body Wt: 30.7 ± 0.5 g
  Final Fat Mass: 4.4 ± 0.6* g
  Final Lean Mass: 20.0 ± 0.3 g
[1]; conclusion from Table IV, standard chow
  Lean mass and fat mass (conclusion): increased lean mass and decreased fat mass
[2]
  Potency and efficacy compared with native ursolic acid and other ursolic acid salts: more potent and efficacious
[2]; [12]
  Grip Strength (% Change vs. Control): 11.7 ± 2.5 %

## C1CNCCN1.C[C@H]1[C@H](C)CC[C@]2(C(=O)O)CC[C@]3(C)C(=CC[C@@H]4[C@@]5(C)CC[C@H](O)C(C)(C)[C@@H]5CC[C@]43C)[C@H]12 [Ursolic Acid-Piperazine Salt, ursolic acid-piperazine salt]
[2]; [12]
  Grip Strength (% Change vs. Control): 3.7 ± 2.5%

## CC1CCC2(C(=O)O)CCC3(C)C(=CCC4C5(C)CCC(O)C(C)(C)C5CCC43C)C2C1C.NCCO (stereo not shown) [Ursolic Acid-Ethanolamine Salt, ursolic acid-ethanolamine salt]
[2]; [12]
  Grip Strength (% Change vs. Control): 2.8 ± 1.6%

## CC1CCC2(C(=O)O)CCC3(C)C(=CCC4C5(C)CCC(O)C(C)(C)C5CCC43C)C2C1C.NCCCCC(N)C(=O)O (stereo not shown) [Ursolic Acid-Lysine Salt, ursolic acid-lysine salt]
[2]; [12]
  Grip Strength (% Change vs. Control): 7.2 ± 2.3%

## C[C@H]1[C@H](C)CC[C@]2(C(=O)O)CC[C@]3(C)C(=CC[C@@H]4[C@@]5(C)CC[C@H](O)C(C)(C)C5CC[C@]43C)[C@H]12 (stereo partly shown) [Ursolic Acid, Ursolic acid]
[3]
  Fasting blood glucose: 166.3 ± 3.7 mg/dL
  Glucose tolerance test area under the curve (AUC): 40,585±1,357
[2]; [12]
  Grip Strength (% Change vs. Control): 7.7 ± 1.9%
[2]; standard chow with 0.200% ursolic acid
  Grip Strength (% Change vs. Control): 9.9 ± 2.2 %
[4]
  Total cellular protein (FIG. 6): significantly increased
[5]
  Epididymal Fat Pad Wt: 2208.6 ± 52.0 ^a mg
  Final % Fat: 39.8 ± 0.7 ^a %
  Final % Lean: 50.4 ± 0.5 ^a %
  Final Body Wt: 40.8 ± 0.5 ^a g
  Final Fat Mass: 16.3 ± 0.3 ^a g
  Final Lean Mass: 20.6 ± 0.3 ^a g
  Retroperitoneal Fat Pad Wt: 986.1 ± 21.8 ^a mg
  Skeletal Muscle Wt (mg/g Final Body Wt): 25.5 ± 0.4 ^a mg/g Final Body Wt

## CC1CCC2(C(=O)O)CCC3(C)C(=CCC4C5(C)CCC(O)C(C)(C)C5CCC43C)C2C1C.NC(CO)(CO)CO (stereo not shown) [Ursolic Acid-Tris Salt, ursolic acid-tris(hydroxymethyl)aminomethane salt]
[2]; [12]
  Grip Strength (% Change vs. Control): 5.2 ± 1.6%

## C[C@H]1[C@H](C)CC[C@]2(C(=O)O)CC[C@]3(C)C(=CC[C@@H]4[C@@]5(C)CC[C@H](O)C(C)(C)[C@@H]5CC[C@]43C)[C@H]12 [Ursolic Acid-Morpholine Salt, ursolic acid morpholine salt]
[3]
  Fasting blood glucose: 140.6 ± 7.8 mg/dL
  Glucose tolerance test area under the curve (AUC): 32,606±2,471
[6]
  Glucose tolerance test area under the curve (AUC): 31,383±1,869
[7]
  Epididymal Fat Pad Wt: 1804.0 ± 161.5 mg
  Final % Fat: 31.8 ± 3.1 %
  Final % Lean: 55.3 ± 2.4 %
  Final Body Wt: 38.9 ± 1.2 g
  Final Fat Mass: 12.8 ± 1.4 g
  Final Lean Mass: 21.3 ± 0.6 g
  Retroperitoneal Fat Pad Wt: 731.8 ± 86.9 mg
[7]; conclusion from Table III
  Obesity in diet-induced obese mice: reduced obesity
[7]; non-fasting
  Blood Glucose: 177.7 ± 9.9 mg/dL
[2]
  Potency and efficacy compared with native ursolic acid and other ursolic acid salts: more potent and efficacious
[2]; [12]
  Grip Strength (% Change vs. Control): 11.3 ± 2.1 %
[4]
  Efficacy relative to ursolic acid (total cellular protein): 3 fold
  Potency relative to ursolic acid (total cellular protein): 3 fold
  Total cellular protein (FIG. 6): significantly increased
[8]
  Skeletal muscle fiber size (FIGS. 1A and 1B): increased skeletal muscle fiber size
[5]
  Epididymal Fat Pad Wt: 1713.8 ± 139.8 ^b mg
  Final % Fat: 31.4 ± 2.8 ^b %
  Final % Lean: 57.3 ± 2.1 ^b %
  Final Body Wt: 36.6 ± 0.9 ^b g
  Final Fat Mass: 11.6 ± 1.2 ^b g
  Final Lean Mass: 20.9 ± 0.7 ^a g
  Retroperitoneal Fat Pad Wt: 709.8 ± 72.2 ^b mg
  Skeletal Muscle Wt (mg/g Final Body Wt): 29.1 ± 1.0 ^b mg/g Final Body Wt
[9]
  Final Body Wt: 34.6 ± 1.0 g
  Final Grip Strength: 181.9 ± 2.4 g
[9]; NMR
  Final % Fat: 21.4 ± 2.9 %
  Final % Lean: 61.0 ± 2.2 %
  Final Fat Mass: 7.8 ± 1.2 g
  Final Lean Mass: 20.8 ± 0.3 g
[9]; conclusion from Table II
  Skeletal muscle hypertrophy: stimulated skeletal muscle hypertrophy
[9]; quadriceps, >4200 fibers per diet
  Muscle fiber diameter: 44.8 ± 0.2 μm
[10]; 7 weeks, 6 h fast, P<0.05
  Glucose tolerance test AUC relative to ursolic acid (FIG. 5): significantly lower
[10]; P=0.05
  Grip strength relative to ursolic acid: significantly improved
[11]
  Adipocyte size (FIGS. 2A and 2B): decreased adipocyte size
